Data reported in patent US20240336654A1, “ANTIMICROBIAL PEPTIDOMIMETICS” (SPEXIS AG, priority 2021, published 2024).
Where a SMILES comes first, the peptide text is derived from it. Bridges are numbered along the chain shown (N, C = ends). [ ]: non-standard residue; d: D form. The star is where a group is joined. Val(Nα-amidino) = CC(C)[C@H](NC(=N)N)C(=O)*; Hyp = O=C(O)[C@@H]1C[C@@H](O)CN1; Cit = NC(=O)NCCC[C@H](N)C(=O)O; Pen = CC(C)(S)[C@H](N)C(=O)O; Tle = CC(C)(C)[C@H](N)C(=O)O; dDab = NCC[C@@H](N)C(=O)O; hSer = N[C@@H](CCO)C(=O)O; Dab = NCC[C@H](N)C(=O)O

Experiments:
Format in all cases: cell-based
[1] = system: Klebsiella pneumoniae SSI3010; conditions: SSI3010
Summary of the method: (§1)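 CLSI broth microdilution, slightly modified: cation-adjusted Mueller-Hinton II broth with about 5×10^5 CFU/mL from a 0.5 McFarland suspension, and two-fold serial peptide dilutions with Polysorbate 80 at 0.002% final. MIC (μg/mL) was the lowest concentration with no visible growth after 18-20 hours at 35° C.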

[2] = system: Escherichia coli ATCC 25922; conditions: ATCC 25922
Summary of the method: as §1

[3] = system: Escherichia coli MCR-1 Af 45; conditions: MCR-1 Af 45
Summary of the method: as §1

[4] = system: human red blood cells (hRBC); conditions: red cells of human, 1 h, 200 μg/mL
Summary of the method: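 Percent hemolysis derived from OD540 of supernatants relative to full lysis by 2.5% Triton X-100 (PBS baseline). Washed fresh human erythrocytes (20% v/v) were exposed to 200 μg/mL peptide for 1 h at 37 °C with shaking.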

SMILES	Klebsiella pneumoniae SSI3010 MIC [1] [µg/mL]	Escherichia coli ATCC 25922 MIC [2] [µg/mL]	Escherichia coli MCR-1 Af45 MIC [3] [µg/mL]	Hemolysis at 0.2 g/L [4] [%]
CC[C@H](C)[C@H](NC(=O)[C@@H]1C[C@@H](O)CN1C(=O)[C@@H](NC(=N)N)C(C)C)C(=O)N[C@@H]1C(=O)N[C@@H](Cc2ccc(O)cc2)C(=O)N[C@@H](CCCNC(N)=O)C(=O)N[C@@H](CC(N)=O)C(=O)N[C@@H](CCCNC(=N)N)C(=O)N[C@@H](CCN)C(=O)N[C@@H]([C@@H](C)O)C(=O)N[C@H](CCN)C(=O)N[C@@H](CCCCN)C(=O)N[C@@H](CCN)C(=O)N[C@@H](CCN)C(=O)N[C@H](C(=O)N[C@@H](Cc2ccc(O)cc2)C(=O)O)CSSC1(C)C [Example 115, Gua-Val-Hyp-Ile-Pen-Tyr-Cit-Asn-Arg-Dab-Thr-^DDab-Lys-Dab-Dab-Cys-Tyr] ({Val(Nα-amidino)}-[Hyp]I[Pen]Y[Cit]NR[Dab]T[dDab]K[Dab][Dab]CY-OH; disulfide 3-14)	0.125	0.125	0.0625	<1
CC[C@H](C)[C@H](NC(=O)[C@@H]1C[C@@H](O)CN1C(=O)[C@@H](N)C(C)(C)C)C(=O)N[C@@H]1C(=O)N[C@@H](Cc2ccc(O)cc2)C(=O)N[C@@H](CO)C(=O)N[C@@H](CC(N)=O)C(=O)N[C@@H](CCCNC(=N)N)C(=O)N[C@@H](CCN)C(=O)N[C@@H]([C@@H](C)O)C(=O)N[C@H](CCN)C(=O)N[C@@H](CCCCN)C(=O)N[C@@H](CCN)C(=O)N[C@@H](CCN)C(=O)N[C@H](C(=O)N[C@@H](Cc2ccc(O)cc2)C(=O)O)CSSC1(C)C [Example 3, tBuGly-Hyp-Ile-Pen-Tyr-Ser-Asn-Arg-Dab-Thr-^DDab-Lys-Dab-Dab-Cys-Tyr] (H-[Tle][Hyp]I[Pen]YSNR[Dab]T[dDab]K[Dab][Dab]CY-OH; disulfide 4-15)	0.25	0.125	0.125	<1
CC[C@H](C)[C@H](NC(=O)[C@@H]1C[C@@H](O)CN1C(=O)[C@@H](NC(=N)N)C(C)C)C(=O)N[C@H]1CCNC(=O)CC[C@@H](C(=O)N[C@@H](Cc2ccc(O)cc2)C(=O)O)NC(=O)[C@H](CCN)NC(=O)[C@H](CCN)NC(=O)[C@H](CCCCN)NC(=O)[C@@H](CCN)NC(=O)[C@H]([C@@H](C)O)NC(=O)[C@H](CCN)NC(=O)[C@H](CCCNC(=N)N)NC(=O)[C@H](CC(N)=O)NC(=O)[C@H](CCO)NC(=O)[C@H](Cc2ccc(O)cc2)NC1=O [Example 118, Gua-Val-Hyp-Ile-Dab-Tyr-Hse-Asn-Arg-Dab-Thr-^DDab-Lys-Dab-Dab-Glu-Tyr] ({Val(Nα-amidino)}-[Hyp]I[Dab]Y[hSer]NR[Dab]T[dDab]K[Dab][Dab]EY-OH; lactam 3-14)	0.125	0.0625	0.0625	<1
CC[C@H](C)[C@H](NC(=O)[C@@H]1C[C@@H](O)CN1C(=O)[C@@H](NC(=N)N)C(C)C)C(=O)N[C@H]1CCNC(=O)CC[C@@H](C(=O)N[C@@H](Cc2ccc(O)cc2)C(=O)O)NC(=O)[C@H](CCN)NC(=O)[C@H](CCN)NC(=O)[C@H]([C@@H](C)O)NC(=O)[C@@H](CCN)NC(=O)[C@H]([C@@H](C)O)NC(=O)[C@H](CCN)NC(=O)[C@H](CCCNC(=N)N)NC(=O)[C@H](CC(N)=O)NC(=O)[C@H]([C@@H](C)O)NC(=O)[C@H](Cc2ccc(O)cc2)NC1=O [Example 113, Gua-Val-Hyp-Ile-Dab-Tyr-Thr-Asn-Arg-Dab-Thr-^DDab-Thr-Dab-Dab-Glu-Tyr] ({Val(Nα-amidino)}-[Hyp]I[Dab]YTNR[Dab]T[dDab]T[Dab][Dab]EY-OH; lactam 3-14)	0.25	0.125	0.125	<1
CC[C@H](C)[C@H](NC(=O)[C@@H]1C[C@@H](O)CN1C(=O)[C@@H](N)C(C)C)C(=O)N[C@@H]1C(=O)N[C@@H](Cc2ccc(O)cc2)C(=O)N[C@@H](CCN)C(=O)N[C@@H](CC(N)=O)C(=O)N[C@@H](CCCNC(=N)N)C(=O)N[C@@H](CCN)C(=O)N[C@@H]([C@@H](C)O)C(=O)N[C@H](CCN)C(=O)N[C@@H](CCCCN)C(=O)N[C@@H](CO)C(=O)N[C@@H](CO)C(=O)N[C@H](C(=O)N[C@@H](Cc2ccc(O)cc2)C(=O)O)CSSC1(C)C [Example 48, Val-Hyp-Ile-Pen-Tyr-Dab-Asn-Arg-Dab-Thr-^DDab-Lys-Ser-Ser-Cys-Tyr] (H-V[Hyp]I[Pen]Y[Dab]NR[Dab]T[dDab]KSSCY-OH; disulfide 4-15)	0.5	0.25	0.25	<1
CC[C@H](C)[C@H](NC(=O)[C@@H]1C[C@@H](O)CN1C(=O)[C@@H](N)C(C)C)C(=O)N[C@@H]1C(=O)N[C@@H](C)C(=O)N[C@@H](CO)C(=O)N[C@@H](CC(N)=O)C(=O)N[C@@H](CCCNC(=N)N)C(=O)N[C@@H](CCN)C(=O)N[C@@H]([C@@H](C)O)C(=O)N[C@H](CCN)C(=O)N[C@@H](CCCCN)C(=O)N[C@@H](CCN)C(=O)N[C@@H](CCN)C(=O)N[C@H](C(=O)N[C@@H](Cc2ccc(O)cc2)C(=O)O)CSSC1(C)C [Example 13, Val-Hyp-Ile-Pen-Ala-Ser-Asn-Arg-Dab-Thr-^DDab-Lys-Dab-Dab-Cys-Tyr] (H-V[Hyp]I[Pen]ASNR[Dab]T[dDab]K[Dab][Dab]CY-OH; disulfide 4-15)	0.5	0.5	0.125	<1
CC[C@H](C)[C@H](NC(=O)[C@@H]1C[C@@H](O)CN1C(=O)[C@@H](NC(=N)N)C(C)C)C(=O)N[C@H]1CCNC(=O)CC[C@@H](C(=O)N[C@@H](Cc2ccc(O)cc2)C(=O)O)NC(=O)[C@H](CCN)NC(=O)[C@H](CCN)NC(=O)[C@H](CCCCN)NC(=O)[C@@H](CCN)NC(=O)[C@H]([C@@H](C)O)NC(=O)[C@H](CCN)NC(=O)[C@H](CCCNC(=N)N)NC(=O)[C@H](CC(N)=O)NC(=O)[C@H]([C@@H](C)O)NC(=O)[C@H](Cc2ccc(O)cc2)NC1=O [Example 85, Gua-Val-Hyp-Ile-Dab-Tyr-Thr-Asn-Arg-Dab-Thr-^DDab-Lys-Dab-Dab-Glu-Tyr] ({Val(Nα-amidino)}-[Hyp]I[Dab]YTNR[Dab]T[dDab]K[Dab][Dab]EY-OH; lactam 3-14)	0.125	0.0625	0.0625	1
CC[C@H](C)[C@H](NC(=O)[C@@H]1C[C@@H](O)CN1C(=O)[C@@H](NC(=N)N)C(C)C)C(=O)N[C@@H]1C(=O)N[C@@H](Cc2ccc(O)cc2)C(=O)N[C@@H](CCN)C(=O)N[C@@H](CC(N)=O)C(=O)N[C@@H](CCCNC(=N)N)C(=O)N[C@@H](CCN)C(=O)N[C@@H]([C@@H](C)O)C(=O)N[C@H](CCN)C(=O)N[C@@H](CO)C(=O)N[C@@H]([C@@H](C)O)C(=O)N[C@@H](CCN)C(=O)N[C@H](C(=O)N[C@@H](Cc2ccc(O)cc2)C(=O)O)CSSC1(C)C [Example 102, Gua-Val-Hyp-Ile-Pen-Tyr-Dab-Asn-Arg-Dab-Thr-^DDab-Ser-T-Dab-Cys-Tyr] ({Val(Nα-amidino)}-[Hyp]I[Pen]Y[Dab]NR[Dab]T[dDab]ST[Dab]CY-OH; disulfide 3-14)	0.5	0.25	0.25	<1
CC[C@H](C)[C@H](NC(=O)[C@@H]1C[C@@H](O)CN1C(=O)[C@@H](N)C(C)C)C(=O)N[C@@H]1C(=O)N[C@@H](Cc2ccc(O)cc2)C(=O)N[C@@H](CCN)C(=O)N[C@@H](CC(N)=O)C(=O)N[C@@H](CCCNC(=N)N)C(=O)N[C@@H](CCN)C(=O)N[C@@H](CO)C(=O)N[C@H](CCN)C(=O)N[C@@H](CCCCN)C(=O)N[C@@H](CCN)C(=O)N[C@@H](CO)C(=O)N[C@H](C(=O)N[C@@H](Cc2ccc(O)cc2)C(=O)O)CSSC1(C)C [Example 32, Val-Hyp-Ile-Pen-Tyr-Dab-Asn-Arg-Dab-Ser-^DDab-Lys-Dab-Ser-Cys-Tyr] (H-V[Hyp]I[Pen]Y[Dab]NR[Dab]S[dDab]K[Dab]SCY-OH; disulfide 4-15)	0.5	1	0.5	<1
CC[C@H](C)[C@H](NC(=O)[C@@H]1C[C@@H](O)CN1C(=O)[C@@H](NC(=N)N)C(C)C)C(=O)N[C@@H]1C(=O)N[C@@H](Cc2ccc(O)cc2)C(=O)N[C@@H](CO)C(=O)N[C@@H](CC(N)=O)C(=O)N[C@@H](CCCNC(=N)N)C(=O)N[C@@H](CCN)C(=O)N[C@@H]([C@@H](C)O)C(=O)N[C@H](CCN)C(=O)N[C@@H](CC(N)=O)C(=O)N[C@@H](CCN)C(=O)N[C@@H](CCN)C(=O)N[C@H](C(=O)N[C@@H](Cc2ccc(O)cc2)C(=O)O)CSSC1(C)C [Example 107, Gua-Val-Hyp-Ile-Pen-Tyr-Ser-Asn-Arg-Dab-Thr-^DDab-Asn-Dab-Dab-Cys-Tyr] ({Val(Nα-amidino)}-[Hyp]I[Pen]YSNR[Dab]T[dDab]N[Dab][Dab]CY-OH; disulfide 3-14)	0.25	0.125	0.125	<1
